Laboratory results from US4912036A, “Rapid differentiation of bacteria using cyclic polypeptide antibiotics” (Eastman Kodak Company, priority 1986, dated 1990).

Tests used:
K. pneumoniae = test: DCIP reduction solution assay, ΔOD 620 nm; format: cell-based, Klebsiella pneumoniae; details: K. pneumoniae (-) 5×10^7, gramicidin S 0.00625 mg/ml, 37° C.
Procedure: (§1) These examples illustrate the differentiation of bacteria using a tetrazolium salt and phenolic dye as the reducible compounds and two cyclic polypeptide antibiotics according to the present invention. The tetrazolium salt was 3-(4,5-dimethyl-2-thiazolyl) -2,5-diphenyl-2H-tetrazolium bromide (MTT) which forms a colored formazan dye when reduced. The phenolic dye was 2,6-dichloroindophenol (DCIP) which forms a colorless species when reduced.
(§2) Solutions of the reducible compounds were prepared with the following: HEPES buffer (3 ml, 0.05 molar, pH 7.5), TRITON X-100 nonionic surfactant (1% concentration), glucose (50 μl of 10% in water), tryptose (50 μl of a 10% solution in water), MTT (25 μl of 5 mg/ml methanol) or DCIP (25 μl of 3 mg/ml methanol) and phenazine methosultate ETA (25 μl of 3 mg/ml methanol).
(§3) Test solutions were prepared from the following: reducible compound solution from above (200 μl), 50 μl of either gramicidin S solution (6 mg/ml methanol and 9 ml of buffer) or tyrocidin solution (100 mg/ml methanol and 8 ml of buffer) and 50 μl of cell suspension. […] The change in optical density (ΔOD) was determined after 30 minutes at 37° C. at 540 nm for the MTT assay and at 620 nm for the DCIP assay using a commercially available spectrophotometer.

P. aeruginosa = test: MTT reduction solution assay, ΔOD 540 nm; format: cell-based, Pseudomonas aeruginosa; details: P. aeruginosa (-) 5×10^7, gramicidin S 0.00625 mg/ml, 37° C.
Procedure: as §1, §2, §3

E. cloacae [1] = test: MTT reduction solution assay, ΔOD 540 nm; format: cell-based, Enterobacter cloacae; details: E. cloacae (-) 5×10^7, gramicidin S 0.00625 mg/ml, 37° C.
Procedure: as §1, §2, §3

E. cloacae [2] = test: DCIP reduction solution assay, ΔOD 620 nm; format: cell-based, Enterobacter cloacae; details: E. cloacae (-) 5×10^7, gramicidin S 0.00625 mg/ml, 37° C.
Procedure: as §1, §2, §3

[3] = system: viable gram-positive and gram-negative bacteria; test: Differentiation in RIND XXIX solution assays, overall result; format: cell-based; details: gramicidin S 0.1 mg/ml, tyrocidin 3.3 mg/ml
Procedure: Each test solution contained the following: dispersion of RIND XXIX (25 μl) prepared as described above, glucose (400 μl of 10% aqueous solution), tryptose (400 μl of 10% aqueous solution), trimethyl-1,4-benzoquinone ETA (500 μl of 1.5 mg/ml methanol). Aliquots (200 μl) of the mixture were mixed with solutions of the antibiotics (50 μl). The cell suspensions (50 μl) were then added. The final concentration of gramcidin S and tyrocidin were 0.1 mg/ml and 3.3 mg/ml, respectively. The final cell concentration was about 5×10^7 cells/ml. Cell control solutions contained all reagents except antibiotics. Background controls consisted of both buffer and solution controls. The buffer control contained all reagents except antibiotics and cells. The solution control contained all reagents except cells.
The solutions were incubated at 37° C. for 30 minutes, and the change in fluorescence emission (Δ fluorescence) was determined as the difference between the readings taken when the solutions were first mixed and then after 30 minutes incubation. Measurements were made in a commercially available MICROFLUOR Reader (available from Dynatech Laboratories, Alexandria, Virginia, U.S.A.), modified with an excitation filter at 540 nm, an emission filter at 620 nm and a Xenon lamp.
This example illustrates the practice of this invention to identify a Proteus species in solution. Test solutions and cell control solutions were prepared and tested as described in Example 2 and 3 except that polymixin B was used at 0.01 mg/ml of methanol. The final cell concentration was about 5×10^7 cells/ml.

E. coli = test: DCIP reduction solution assay, ΔOD 620 nm; format: cell-based, Escherichia coli; details: E. coli (-) 5×10^7, gramicidin S 0.00625 mg/ml, 37° C.
Procedure: as §1, §2, §3

S. aureus [4] = test: DCIP reduction solution assay, ΔOD 620 nm; format: cell-based, Staphylococcus aureus; details: S. aureus (+) 5×10^7, gramicidin S 0.00625 mg/ml, 37° C.
Procedure: as §1, §2, §3

P. vulgaris = test: MTT reduction solution assay, ΔOD 540 nm; format: cell-based, Proteus vulgaris; details: P. vulgaris (-) 5×10^7, gramicidin S 0.00625 mg/ml, 37° C.
Procedure: as §1, §2, §3

S. aureus [5] = test: RIND VII reduction solution assay, ΔOD 635 nm; format: cell-based, Staphylococcus aureus; details: S. aureus 7 × 10^7 /ml, antibiotic 10^-4 molar
Procedure: (§4) Bacterial suspensions were prepared by growing the cells in BHT broth to stationary phase overnight at 37° C. P. auruginosa was grown with agitation. About 40 ml of each overnight culture was centrifuged, decanted and washed once with 0.05 molar potassium phosphate buffer or 0.05 molar N-2-hydroxy-ethylpiperazine-N'-2-ethanesulfonic acid (HEPES) buffer, pH 7.8, and resuspended in buffer.
(§5) TERGITOL 7 anionic surfactant was used to differentiate viable bacteria according to the prior art method. Various concentrations of TERGITOL 7 surfactant were mixed with a 10% glucose solution (50 μl), 3-(4,5-dimethyl-2-thiazolyl)-2,5-diphenyl-2N-tetrazolium bromide (MTT) (25 μl at 5 mg/ml methanol) or a RIND VII dispersion (1.5 ml) and phenazine methosulfate ETA (25 μl at 3 mg/ml methanol). The volume of each test solution was brought to 3 ml with potassium phosphate buffer. A cell suspension (100 μl at about 10^8 cells/ml) was then added. The solutions were incubated at 37° C. for 15 and 30 minutes in the presence of either E. coli, a gram(-) bacterium, or S. aureus, a gram(+) bacterium. The amount of dye formed was then determined visually, and graded as follows: "O" indicates no dye formation, +/- indicates faint dye formation, 1+ indicates light dye formation, 2+ indicates moderate dye formation, 3+ indicates strong dye formation, and 4+ indicates very strong dye formation. […]

S. faecalis = test: RIND VII reduction solution assay, ΔOD 635 nm; format: cell-based, Streptococcus faecalis; details: S. faecalis 7 × 10^7 /ml, antibiotic 10^-4 molar
Procedure: as §4, §5

gramicidin S
ΔOD, 620 nm after 30 Minutes (K. pneumoniae): 1.062 | ΔOD, 540 nm after 30 Minutes (P. aeruginosa): 0.955 | ΔOD, 540 nm after 30 Minutes (E. cloacae [1]): 0.931 | ΔOD, 620 nm after 30 Minutes (E. cloacae [2]): 0.997 | differentiation between viable gram-positive and gram-negative bacteria, in words [3]: can be used with RIND XXIX to differentiate between viable gram-positive and gram-negative bacteria | ΔOD, 620 nm after 30 Minutes (E. coli): 1.042 | ΔOD, 620 nm after 30 Minutes (S. aureus [4]): 0.096 | ΔOD, 540 nm after 30 Minutes (P. vulgaris): 0.841 | Corrected ΔOD (15 Minutes) (S. aureus [5]): 0.107 | Corrected ΔOD (15 Minutes) (S. faecalis): 0.125
